Measurements reported in patent publication US10890591B2, “Methods and dose packs for monitoring medication adherence” (Synapse Biosciences, LLC, priority 2016, dated 2021).

Legend:
[1] = Multiple Marker Experiment 2: urine samples, simulated non-adherence (one marker dose skipped per subject), LC-MS/MS; conditions: for Subject B, Urine Results / Subject C, Urine Results: collected before that day's dose; for Subject B, Urine Results / Subject C, Urine Results / concentration at 8 day: other markers dosed once; for concentration at 8 day: Urine Results, Day 8 sample
[2] = Multiple Marker Experiment 1: saliva samples, marker concentration by LC-MS/MS; conditions: human, in vivo;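 further: mean across four subjects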
Source text: (§1) All other markers were obtained from commercial sources. Urine and saliva were collected prior to each day's dosing of marker confirming the presence or absence of markers before the experiment started. […] The presence of all 7 markers at day 8 would confirm that all markers were ingested in the previous 7 day one week period.
(§2) Healthy volunteers with no recent exposure to the markers who were not currently taking prescribed medications, OTC medications or vitamins and supplements were chosen. Exposure to the markers more than one month before starting the experiment was allowed and no dietary restrictions were required. Subjects were given a 7 day blister pack with markers sequenced in the order above. Subjects verbally confirmed they understood the urine and saliva collection procedures. Instructions printed on the marker blister pack instructed subjects to collect urine and saliva each morning before they took the daily dose of marker. They were also instructed to take the daily dose of marker close to the same time each day.

[3] = Multiple Marker Experiment 1: urine samples, adherent with all markers, marker concentration by LC-MS/MS; conditions: for Subject A, Urine Results / Subject B, Urine Results / Subject C, Urine Results / Subject D, Urine Results / Average of Urine Samples / concentration at 8 day: each marker dosed once
Source text: as §1, §2

[4] = Day 1 sample, collected before that day's dose, Experiment #1, adherent with all markers
[5] = Day 2 sample, collected before that day's dose, Experiment #1, adherent with all markers
[6] = Day 3 sample, collected before that day's dose, Experiment #1, adherent with all markers
[7] = Day 4 sample, collected before that day's dose, Experiment #1, adherent with all markers
[8] = Day 5 sample, collected before that day's dose, Experiment #1, adherent with all markers
[9] = Day 6 sample, collected before that day's dose, Experiment #1, adherent with all markers
[10] = Day 7 sample, collected before that day's dose, Experiment #1, adherent with all markers
[11] = Day 8 sample, Experiment #1, adherent with all markers

For `COc1ccc2c(c1)[C@]13CCCC[C@@H]1[C@H](C2)N(C)CC3` [DXM, Dextromethorphan], the “Subject B, Urine Results” value ([1]; Day 1 sample, Experiment #2, subject B skipped diphenhydramine on day 5) was 0 ng/mL, the “Subject C, Urine Results” value ([1]; Day 1 sample, Experiment #2, subject C skipped Loperamide on day 2) was 0 ng/mL and the “Subject B, Urine Results” value ([1]; Day 2 sample, Experiment #2, subject B skipped diphenhydramine on day 5) was 0 ng/mL. The “Subject C, Urine Results” value ([1]; Day 2 sample, Experiment #2, subject C skipped Loperamide on day 2) was 0 ng/mL, the “Subject B, Urine Results” value ([1]; Day 3 sample, Experiment #2, subject B skipped diphenhydramine on day 5) was 0 ng/mL and the “Subject C, Urine Results” value ([1]; Day 3 sample, Experiment #2, subject C skipped Loperamide on day 2) was 0 ng/mL. The “Subject B, Urine Results” value ([1]; Day 4 sample, Experiment #2, subject B skipped diphenhydramine on day 5) was 2640 ng/mL, the “Subject C, Urine Results” value ([1]; Day 4 sample, Experiment #2, subject C skipped Loperamide on day 2) was 377 ng/mL and the “Subject B, Urine Results” value ([1]; Day 5 sample, Experiment #2, subject B skipped diphenhydramine on day 5) was 181 ng/mL. The “Subject C, Urine Results” value ([1]; Day 5 sample, Experiment #2, subject C skipped Loperamide on day 2) was 40 ng/mL, the “Subject B, Urine Results” value ([1]; Day 6 sample, Experiment #2, subject B skipped diphenhydramine on day 5) was 14.7 ng/mL and the “Subject C, Urine Results” value ([1]; Day 6 sample, Experiment #2, subject C skipped Loperamide on day 2) was 1.35 ng/mL. The “Subject B, Urine Results” value ([1]; Day 7 sample, Experiment #2, subject B skipped diphenhydramine on day 5) was 16.6 ng/mL, the “Subject C, Urine Results” value ([1]; Day 7 sample, Experiment #2, subject C skipped Loperamide on day 2) was 1.11 ng/mL and the “course of urine levels relative to dosing” value ([1]; Experiment 2, days 1-8) was “zero before dosing, peaked the day after dosing and slowly decreased over time”. For the same compound, the concentration at 1 day ([1]; human, in vivo) was 0 ng/mL, the concentration at 2 day ([1]; human, in vivo) was 0 ng/mL and the concentration at 3 day ([1]; human, in vivo) was 0 ng/mL. It also gave a concentration at 8 day ([1]; human, in vivo, Subject B, Experiment #2, subject B skipped diphenhydramine on day 5) of 2.63 ng/mL, a concentration at 8 day ([1]; human, in vivo, Subject C, Experiment #2, subject C skipped Loperamide on day 2) of 0.15 ng/mL and a concentration at 1 day [2] of 0 ng/mL. The concentration at 2 day [2] was 0 ng/mL, the concentration at 3 day [2] was 0 ng/mL and the concentration at 4 day [2] was 8.4 ng/mL. For the same compound, the concentration at 5 day [2] was 1.52 ng/mL, the concentration at 6 day [2] was 0.501 ng/mL and the concentration at 7 day [2] was 0.439 ng/mL. The concentration at 8 day [2] was 0.197 ng/mL, the “Subject A, Urine Results” value [3, 4] was 0 ng/mL and the “Subject B, Urine Results” value [3, 4] was 0 ng/mL. The “Subject C, Urine Results” value [3, 4] was 0 ng/m, the “Subject D, Urine Results” value [3, 4] was 0 ng/m and the “Subject A, Urine Results” value [3, 5] was 0 ng/mL. The “Subject B, Urine Results” value [3, 5] was 0 ng/mL, the “Subject C, Urine Results” value [3, 5] was 0 ng/m and the “Subject D, Urine Results” value [3, 5] was 0 ng/m. The “Subject A, Urine Results” value [3, 6] was 0 ng/mL, the “Subject B, Urine Results” value [3, 6] was 0 ng/mL and the “Subject C, Urine Results” value [3, 6] was 0 ng/m. For the same compound, the “Subject D, Urine Results” value [3, 6] was 0 ng/m, the “Subject A, Urine Results” value [3, 7] was 146 ng/mL and the “Subject B, Urine Results” value [3, 7] was 358 ng/mL. The “Subject C, Urine Results” value [3, 7] was 187 ng/m, the “Subject D, Urine Results” value [3, 7] was 641 ng/m and the “Average of Urine Samples” value ([3]; Day 4 sample, collected before that day's dose, average of subjects A, B, C, D, Experiment 1) was 333 ng/mL. The “Subject A, Urine Results” value [3, 8] was 11.7 ng/mL, the “Subject B, Urine Results” value [3, 8] was 31.4 ng/mL and the “Subject C, Urine Results” value [3, 8] was 15 ng/m. The “Subject D, Urine Results” value [3, 8] was 51.8 ng/m, the “Average of Urine Samples” value ([3]; Day 5 sample, collected before that day's dose, average of subjects A, B, C, D, Experiment 1) was 27.475 ng/mL and the “Subject A, Urine Results” value [3, 9] was 3.6 ng/mL. The “Subject B, Urine Results” value [3, 9] was 17.8 ng/mL, the “Subject C, Urine Results” value [3, 9] was 4.84 ng/m and the “Subject D, Urine Results” value [3, 9] was 4.53 ng/m. For the same compound, the “Average of Urine Samples” value ([3]; Day 6 sample, collected before that day's dose, average of subjects A, B, C, D, Experiment 1) was 7.6925 ng/mL, the “Subject A, Urine Results” value [3, 10] was 0.987 ng/mL and the “Subject B, Urine Results” value [3, 10] was 3.96 ng/mL. The “Subject C, Urine Results” value [3, 10] was 2.12 ng/m, the “Subject D, Urine Results” value [3, 10] was 2.61 ng/m and the “Average of Urine Samples” value ([3]; Day 7 sample, collected before that day's dose, average of subjects A, B, C, D, Experiment 1) was 2.419 ng/mL. For the same compound, the “Subject C, Urine Results” value [3, 11] was 0.787 ng/m, the “Subject D, Urine Results” value [3, 11] was 1.26 ng/m and the “course of urine levels relative to dosing” value ([3]; Experiment 1, days 1-8) was “zero before dosing, peaked the day after dosing and slowly decreased over time”. For the same compound, the concentration at 1 day ([3]; human, in vivo) was 0 ng/mL, the concentration at 2 day ([3]; human, in vivo) was 0 ng/mL and the concentration at 3 day ([3]; human, in vivo) was 0 ng/mL. For the same compound, the concentration at 8 day ([3]; human, in vivo, Average of Urine Samples, Day 8 sample, average of subjects A, B, C, D, Experiment 1) was 1.49 ng/mL, the concentration at 8 day ([3]; human, in vivo, Subject A, Urine Results, Day 8 sample, Experiment #1, adherent with all markers) was 0.341 ng/mL and the concentration at 8 day ([3]; human, in vivo, Subject B, Urine Results, Day 8 sample, Experiment #1, adherent with all markers) was 3.56 ng/mL.
